Test results published in ChEMBL document CHEMBL4043156, “Functionalization of peptide nucleolipid bioconjugates and their structure anti-cancer activity relationship studies” (Bioorg Med Chem Lett, 2017).
Active and inactive are the calls of the source. No cut-off for these calls is given here.

Assays:
[1] = tested on: MM1.S; assay: Induction of apoptosis in human MM1S cells at 2.5 uM after 24 hrs by Annexin V-FITC/propidium iodide based FACS analysis; format: functional, cell-based
[2] = tested on: MM1.S; assay: Induction of apoptosis in human MM1S cells assessed as increase in necrotic cells at 2.5 uM after 24 hrs by Annexin V-FITC/propidium iodide based FACS analysis; format: functional, cell-based

Compound | Activity [1] | Activity [2]
Cc1cn([C@H]2C[C@H](OCCNCCCNCCCCNCCCN)[C@@H](C(=O)NCCCC[C@@H](NC(=O)[C@@H](C)NC(=O)[C@@H](CCCCN)NC(=O)[C@@H](C)NC(=O)[C@@H](CC(C)C)NC(=O)[C@@H](CCCCN)NC(=O)[C@@H](C)NC(=O)[C@@H](CC(C)C)NC(=O)[C@@H](CCCCN)NC(=O)CCCCCN)C(=O)O)O2)c(=O)[nH]c1=O | inactive | inactive
CNCCO[C@H]1C[C@H](n2cc(C)c(=O)[nH]c2=O)O[C@@H]1C(=O)NCCCC[C@@H](NC(=O)[C@@H](C)NC(=O)[C@@H](CCCCN)NC(=O)[C@@H](C)NC(=O)[C@@H](CC(C)C)NC(=O)[C@@H](CCCCN)NC(=O)[C@@H](C)NC(=O)[C@@H](CC(C)C)NC(=O)[C@@H](CCCCN)NC(=O)CCCCCN)C(=O)O | inactive | inactive
CCCCCCCCNCCO[C@H]1C[C@H](n2cc(C)c(=O)[nH]c2=O)O[C@@H]1C(=O)NCCCC[C@@H](NC(=O)[C@@H](C)NC(=O)[C@@H](CCCCN)NC(=O)[C@@H](C)NC(=O)[C@@H](CC(C)C)NC(=O)[C@@H](CCCCN)NC(=O)[C@@H](C)NC(=O)[C@@H](CC(C)C)NC(=O)[C@@H](CCCCN)NC(=O)CCCCCN)C(=O)O | inactive | inactive
Cc1cn([C@H]2C[C@H](OCCNCc3c[nH]cn3)[C@@H](C(=O)NCCCC[C@@H](NC(=O)[C@@H](C)NC(=O)[C@@H](CCCCN)NC(=O)[C@@H](C)NC(=O)[C@@H](CC(C)C)NC(=O)[C@@H](CCCCN)NC(=O)[C@@H](C)NC(=O)[C@@H](CC(C)C)NC(=O)[C@@H](CCCCN)NC(=O)CCCCCN)C(=O)O)O2)c(=O)[nH]c1=O | Active | Active
Cc1cn([C@H]2C[C@H](OCCNCCCN)[C@@H](C(=O)NCCCC[C@@H](NC(=O)[C@@H](C)NC(=O)[C@@H](CCCCN)NC(=O)[C@@H](C)NC(=O)[C@@H](CC(C)C)NC(=O)[C@@H](CCCCN)NC(=O)[C@@H](C)NC(=O)[C@@H](CC(C)C)NC(=O)[C@@H](CCCCN)NC(=O)CCCCCN)C(=O)O)O2)c(=O)[nH]c1=O | inactive | inactive
